Eleven molecules from patent US7648978B2, “Small molecule modulators of cytokine activity” (Angion Biomedica Corp., priority 2004, dated 2010) can be followed below.

Common to all, as to assay type: cell-based
For assay [1], the system named is Endothelial cells (HUVECs). Put plainly: HUVEC proliferation (3H-thymidine incorporation). Conditions: Homo sapiens, Table 1, read-out: HUVEC ED50. As to the method:
(§1) a. Proliferation. The following assay was performed to assess the activity of the compounds of the invention in cell proliferation. Endothelial cells (HUVECs) were seeded in 96-well plates at a density of 10,000 cells per well in the normal growth medium (EGM-2-Clonetics) containing 2% fetal bovine serum, FGF, VEGF, IGF, ascorbic acid, EGF, GA, heparin and hydrocortisone. The cells were grown normally in the growth medium for 24 hr at 37° C. and 5% CO2. The cells were then rinsed with RPMI-1% BSA and starved for 1-2 hr. The stock solutions of the compounds of the invention were made at a concentration of 10 mg/ml in DMSO and diluted in RPMI-1% BSA at final concentrations of 0.001 uM to 50 uM. The cells were then washed and treated with the compounds and incubated for another 20 hr at 37° C. Then ^3H thymidine (0.5 microgram/ml in RPMI-BSA) was added to the cells and incubated at 37° C. for 4 hr. The unincorporated thymidine was removed by washing the cells four times with 1×PBS. Then the cells were lysed with 0.5M NaOH for 30 min and the radioactivity counted in the beta counter. A similar proliferation assay using monkey bronchial epithelial cells (4MBR-5) and oligodendrocyte cells was also employed.

A further assay relates to oligodendrocytes. Put plainly: Oligodendrocyte proliferation. Particulars: Mus musculus, Table 2, read-out: Oligodendrocyte ED50. As to the method: as §1
e. Stimulation of Oligodendrocyte Proliferation. Mouse primary oligodendrocytes (Celprogen, Calif.) were seeded in 96-well plates at 5000 cells/well in serum-free medium for 16 hours. Cells were treated with test compound or HGF/SF (positive control) for 16-24 hours. WST1 cell proliferation reagent (Roche, N.J.) was added to oligodendrocytes, and incubation was continued for another 4-5 hours. Cells with WST1 reagent were read using a plate reader at an OD of 490 nm.

A further assay relates to monocytes / HUVECs. Put plainly: Monocyte migration and binding to CRP-treated HUVECs; VCAM-1 and MCP-1 expression. Conditions: CRP 25 ug/ml, test compound 10 uM or HGF 50 ng/ml. As to the method: a. Compound treatment decreases monocyte migration and binding to ECs. […] HUVECs were incubated with CRP (25 ug/ml), CRP together with test compound (10 uM) or HGF (50 ng/ml). The cellular extracts with lysis buffer and analyzed for VCAM-1 and MCP-1 expression via Western blot analysis. For Monocyte binding and migration experiments, monocytes were labeled with a fluorescent dye Vybrant Did (Molecular Probes) and treated to the HUVECs treated as above.

`CC1CCCCN1c1ccc(-c2n[nH]c(=O)c3ccccc23)cc1[N+](=O)[O-]` (stereo not shown): the EC50 in assay [1] stood at 2000 nM.

`CCC1CCCCN1c1ccc(-c2n[nH]c(=O)c3ccccc23)cc1[N+](=O)[O-]` (stereo not shown): the EC50 in assay [1] was 3000 nM.

On to `CCCC1CCN(c2ccc(-c3n[nH]c(=O)c4ccccc34)cc2[N+](=O)[O-])CC1`, for which the EC50 in assay [1] was 4000 nM.

With `CC1CCCN(c2ccc(-c3n[nH]c(=O)c4ccccc34)cc2[N+](=O)[O-])C1` (stereo not shown), the EC50 in assay [1] is 3000 nM.

In the case of `O=c1[nH]nc(-c2ccc(N3CCCCCC3)c([N+](=O)[O-])c2)c2ccccc12` [drawing 50], the EC50 in assay [1] turned out to be 2500 nM.

Turning to `O=c1[nH]nc(-c2ccc(N3CCCCC3)c([N+](=O)[O-])c2)c2ccccc12` [drawing 51], the EC50 in assay [1] turned out to be 10000 nM.

For `CC1CCN(c2ccc(-c3n[nH]c(=O)c4ccccc34)cc2[N+](=O)[O-])CC1` [drawing 52], in assay [1], the EC50 is 5000 nM.

As to `O=c1[nH]nc(-c2ccc(N3CCCCCC3)c([N+](=O)[O-])c2)c2ccccc12` [drawing 57], the EC50 in the assay on oligodendrocytes was determined as 200 nM.

On to `O=c1[nH]nc(-c2ccc(N3CCCCC3)c([N+](=O)[O-])c2)c2ccccc12` [drawing 58], for which the EC50 in the assay on oligodendrocytes turned out to be 200 nM.

In the case of `CC1CCN(c2ccc(-c3n[nH]c(=O)c4ccccc34)cc2[N+](=O)[O-])CC1` [drawing 59], in the assay on oligodendrocytes, the EC50 was 200 nM.

For the molecule “HGF: Scatter factor / hepatocyte growth factor, a pleiotropic growth factor; used as positive control”, in the assay on monocytes / HUVECs (FIG. 17), the “monocyte migration and binding to endothelial cells” value is reported as “decreased”. Also, in the assay on monocytes / HUVECs (Western blot), the MCP-1 expression entry was “decreased” and the VCAM-1 expression result is “decreased”.
